Structures are written as SMILES.

In the case of `O=C1CN(CCc2cccc(Cl)c2)C(C(F)(F)F)c2cc(Cl)ccc2N1` (centres unmarked) [compound 141, 7-Chloro-4-(2-(3-chlorophenyl)ethyl)-1,5-dihydro-5-(trifluoromethyl)-1,4-benzodiazepin-2-one], the melting point – broadly, the temperature of the solid-liquid transition – fell in the range of 208 to 209 °C. Then `O=C1CN(Cc2cccc(F)c2)C(C(F)(F)F)c2cc(Cl)ccc2N1` (centres unmarked) [compound 142, 7-Chloro-4-(3-fluorobenzyl)-1,5-dihydro-5-(trifluoromethyl)-1,4-benzodiazepin-2-one], with 181 to 182 °C. Then `COc1cccc(OC)c1CN1CC(=O)Nc2ccc(Cl)cc2C1C(F)(F)F` (centres unmarked) [compound 143, 7-Chloro-4-(2,6-dimethoxybenzyl)-1,5-dihydro-5-(trifluoromethyl)-1,4-benzodiazepin-2-one], with 128 to 129 °C; and `COc1ccc(OC)c(CN2CC(=O)Nc3ccc(Cl)cc3C2C(F)(F)F)c1` (centres unmarked) [compound 144, 7-Chloro-4-(2,5-dimethoxybenzyl)-1,5-dihydro-5-(trifluoromethyl)-1,4-benzodiazepin-2-one], with 182 to 183 °C. Then `COc1ccc(OC)c(CN2CC(=O)Nc3ccc(Cl)cc3C2C(F)(F)F)c1F` (centres unmarked) [compound 145, 7-Chloro-4-(2,5-dimethoxy-6-fluorobenzyl)-1,5-dihydro-5-(trifluoromethyl)-1,4-benzodiazepin-2-one], with 121 to 122 °C.

In the case of `COc1cccc(F)c1CN1CC(=O)Nc2ccc(Cl)cc2C1C(F)(F)F` (centres unmarked) [compound 146, 7-Chloro-4-(2-methoxy-6-fluorobenzyl)-1,5-dihydro-5-(trifluoromethyl)-1,4-benzodiazepin-2-one], the melting point is 107 to 108 °C.

Compound `O=C1CN(Cc2cccc(F)c2F)C(C(F)(F)F)c2cc(Cl)ccc2N1` (centres unmarked) [compound 147, 7-Chloro-4-(2,3-difluorobenzyl)-1,5-dihydro-5-(trifluoromethyl)-1,4-benzodiazepin-2-one] showed a melting point of 182 to 183 °C. Then `O=C1CN(Cc2cc(F)ccc2F)C(C(F)(F)F)c2cc(Cl)ccc2N1` (centres unmarked) [compound 148, 7-Chloro-4-(2,5-difluorobenzyl)-1,5-dihydro-5-(trifluoromethyl)-1,4-benzodiazepin-2-one], with 134 to 135 °C; and `CCC#CCN1CC(=O)Nc2ccc(Cl)cc2C1C(F)(F)F` (centres unmarked) [compound 149, 7-Chloro-4-(2-pentynyl)-1,5-dihydro-5-(trifluoromethyl)-1,4-benzodiazepin-2-one], with 123 to 124 °C. Then `O=C1CN(Cc2cc(Br)cs2)C(C(F)(F)F)c2cc(Cl)ccc2N1` (centres unmarked) [compound 150, 7-Chloro-4-(4-bromothien-2-ylmethyl)-1,5-dihydro-5-(trifluoromethyl)-1,4-benzodiazepin-2-one], with 173 to 174 °C; and `CC(C)CCN1CC(=O)Nc2ccc(Cl)cc2C1C(F)(F)F` (centres unmarked) [compound 151, 7-Chloro-4-(3-methylbutyl)-1,5-dihydro-5-(trifluoromethyl)-1,4-benzodiazepin-2-one], with 68 to 70 °C; and `C=CCCCN1CC(=O)Nc2ccc(Cl)cc2C1C(F)(F)F` (centres unmarked) [compound 152, 7-Chloro-4-(4-penten-1-yl)-1,5-dihydro-5-(trifluoromethyl)-1,4-benzodiazepin-2-one], with 86 to 87 °C. In turn, `CCC=CCN1CC(=O)Nc2ccc(Cl)cc2C1C(F)(F)F` (centres unmarked) [compound 153, 7-Chloro-4-(2-penten-1-yl)-1,5-dihydro-5-(trifluoromethyl)-1,4-benzodiazepin-2-one] displayed a melting point of 83 to 84 °C. The same measure for `O=C1CN(CC#Cc2ccccc2)C(C(F)(F)F)c2cc(Cl)ccc2N1` (centres unmarked) [compound 154, 7-Chloro-4-(3-phenyl-2-propynyl)-1,5-dihydro-5-(trifluoromethyl)-1,4-benzodiazepin-2-one]: 138 to 139 °C; for `COc1ccc(F)c(F)c1CN1CC(=O)Nc2ccc(Cl)cc2C1C(F)(F)F` (centres unmarked) [compound 157, 7-Chloro-4-(2,3-difluoro-6-methoxybenzyl)-1,5-dihydro-5-(trifluoromethyl)-1,4-benzodiazepin-2-one]: 170 to 171 °C.

Compound `COc1cccc(F)c1CN1CC(=O)Nc2ccc(Cl)cc2C1C(F)(F)F` (centres unmarked) [compound 158, 7-Chloro-4-(2-fluoro-6-methoxybenzyl)-1,5-dihydro-5-(trifluoromethyl)-1,4-benzodiazepin-2-one] came in with a melting point of 156 to 157 °C. Then `CCCCC1(C(F)(F)F)c2cc(Cl)ccc2NC(=O)CN1c1ccccc1` (centres unmarked) [compound 159, 7-Chloro-4-phenyl-5-butyl-1,5-dihydro-5-(trifluoromethyl)-1,4-benzodiazepin-2-one], with 177 to 178 °C; and `CCC#CCN1CC(=O)Nc2ccc(Cl)cc2C1C(F)(F)F` (centres unmarked) [compound 160, 7-Chloro-4-(2-pentynyl)-1,5-dihydro-5-(trifluoromethyl)-1,4-benzodiazepin-2-one], with 114 to 115 °C; and `O=C1CN(c2ccccc2)C(C(F)(F)F)c2cc(Cl)ccc2N1` (centres unmarked) [compound 164, 7-Chloro-4-phenyl-1,5-dihydro-5-(trifluoromethyl)-1,4-benzodiazepin-2-one], with 187 to 188 °C. Then `C#CCN1CC(=O)Nc2ccc(Cl)cc2C1C(F)(F)F` (centres unmarked) [compound 165, 7-Chloro-4-(2-propynyl)-1,5-dihydro-5-(trifluoromethyl)-1,4-benzodiazepin-2-one], with 181 to 182 °C; and `CC#CCN1CC(=O)Nc2ccc(Cl)cc2C1C(F)(F)F` (centres unmarked) [compound 166, 7-Chloro-4-(2-butynyl)-1,5-dihydro-5-(trifluoromethyl)-1,4-benzodiazepin-2-one], with 174 to 175 °C; and `O=C1C=NC(CC(=O)C2CC2)(C(F)(F)F)c2cc(Cl)ccc2N1` (centres unmarked) [compound 167, 7-Chloro-5-(2-cyclopropyl-2-ethanonyl)-1,5-dihydro-5-(trifluoromethyl)-1,4-benzodiazepin-2-one], with 148 to 149 °C. The same measure for `O=C1C=NC(Cc2ccccc2)(C(F)(F)F)c2cc(Cl)ccc2N1` (centres unmarked) [compound 168, 7-Chloro-5-benzyl-1,5-dihydro-5-(trifluoromethyl)-1,4-benzodiazepin-2-one]: 160 to 161 °C; for `CC(C)CC1(C(F)(F)F)N=CC(=O)Nc2ccc(Cl)cc21` (centres unmarked) [compound 169, 7-Chloro-5-(2-methylpropyl)-1,5-dihydro-5-(trifluoromethyl)-1,4-benzodiazepin-2-one]: 118 to 119 °C. `O=C1C=NC(CCc2ccccc2)(C(F)(F)F)c2cc(Cl)ccc2N1` (centres unmarked) [compound 170, 7-Chloro-5-(2-phenylethyl)-1,5-dihydro-5-(trifluoromethyl)-1,4-benzodiazepin-2-one] gave a melting point of 182 to 183 °C. Then `CCCCCC1(C(F)(F)F)N=C(C)C(=O)Nc2ccc(Cl)cc21` (centres unmarked) [compound 171, 7-Chloro-3-methyl-5-(4-methylbutyl)-1,5-dihydro-5-(trifluoromethyl)-1,4-benzodiazepin-2-one], with 103 to 104 °C. The same measure for `O=C1C=N[C@](C#CC2CC2)(C(F)(F)F)c2cc(Cl)ccc2N1` [compound 174, 7-Chloro-5(S)-(cyclopropylethynyl)-1,5-dihydro-5-(trifluoromethyl)-1,4-benzodiazepin-2-one]: 104 to 105 °C; for `CN1CC(=O)Nc2ccc(Cl)cc2C1(C#CC1CC1)C(F)(F)F` (centres unmarked) [compound 175, 7-Chloro-4-methyl-5-(cyclopropylethynyl)-1,5-dihydro-5-(trifluoromethyl)-1,4-benzodiazepin-2-one]: 135 to 136 °C. The same measure for `CCCCCC1(C(F)(F)F)N=C(CC(C)C)C(=O)Nc2ccc(Cl)cc21` (centres unmarked) [compound 176, 7-Chloro-3-(2-methylpropyl)-5-pentyl-1,5-dihydro-5-(trifluoromethyl)-1,4-benzodiazepin-2-one]: 94 to 95 °C; for `CCCCCC1(C(F)(F)F)N=CC(=O)Nc2ccc(Cl)cc21` (centres unmarked) [compound 179, 7-Chloro-5-pentyl-1,5-dihydro-5-(trifluoromethyl)-1,4-benzodiazepin-2-one]: 142 to 143 °C. For the compound `Cc1cccc(F)c1CN1CC(=O)Nc2ccc(Cl)cc2C1C(F)(F)F` (centres unmarked) [compound 180, 7-Chloro-4-(2-fluoro-6-methylbenzyl)-1,5-dihydro-5-(trifluoromethyl)-1,4-benzodiazepin-2-one], the melting point is 196 to 197 °C. Then `CCCCCC1(C(F)(F)F)N=C(C)C(=O)Nc2ccccc21` (centres unmarked) [compound 181, 3-Methyl-5-pentyl-1,5-dihydro-5-(trifluoromethyl)-1,4-benzodiazepin-2-one], with 139 to 140 °C; and `CCC1=NC(C#CC2CC2)(C(F)(F)F)c2ccccc2NC1=O` (centres unmarked) [compound 186, 3-Ethyl-5-(cyclopropylethynyl)-1,5-dihydro-5-(trifluoromethyl)-1,4-benzodiazepin-2-one], with 181 to 182 °C. In the case of `CCCCCC1(C(F)(F)F)N=CC(=O)Nc2ccc(Cl)cc21` (centres unmarked) [compound 187, 7-Chloro-5-pentyl-1,5-dihydro-5-(trifluoromethyl)-1,4-benzodiazepin-2-one], the melting point was 153 to 155 °C. Regarding `CC(C)CCC1(C(F)(F)F)N=CC(=O)Nc2ccc(Cl)cc21` (centres unmarked) [compound 188, 7-Chloro-5-(3-methylbutyl)-1,5-dihydro-5-(trifluoromethyl)-1,4-benzodiazepin-2-one], the melting point was 150 to 152 °C. Then `CC(C)CCC1(C(F)(F)F)N=CC(=O)Nc2ccc(Cl)cc21` (centres unmarked) [compound 189, 7-Chloro-5-(3-methylbutyl)-1,5-dihydro-5-(trifluoromethyl)-1,4-benzodiazepin-2-one], with 151 to 153 °C; and `O=C1C=NC(Cc2ccccc2)(C(F)(F)F)c2cc(Cl)ccc2N1` (centres unmarked) [compound 190, 7-Chloro-5-benzyl-1,5-dihydro-5-(trifluoromethyl)-1,4-benzodiazepin-2-one], with 160 to 162 °C; and `O=C1C=NC(/C=C/C2CC2)(C(F)(F)F)c2cc(Cl)ccc2N1` (centres unmarked) [compound 191, 7-Chloro-5-(2-cyclopropyl-E-ethenyl)-1,5-dihydro-5-(trifluoromethyl)-1,4-benzodiazepin-2-one], with 150 to 153 °C.
